Assay results published in patent publication US10487068B2, “Pyridazine derivatives as RORc modulators” (Genentech, Inc., priority 2015, dated 2019).

Molecular target: T1, RORc ligand binding domain (Homo sapiens, UniProt P51449)
T1 sequence (P51449 269-508 limits assumed): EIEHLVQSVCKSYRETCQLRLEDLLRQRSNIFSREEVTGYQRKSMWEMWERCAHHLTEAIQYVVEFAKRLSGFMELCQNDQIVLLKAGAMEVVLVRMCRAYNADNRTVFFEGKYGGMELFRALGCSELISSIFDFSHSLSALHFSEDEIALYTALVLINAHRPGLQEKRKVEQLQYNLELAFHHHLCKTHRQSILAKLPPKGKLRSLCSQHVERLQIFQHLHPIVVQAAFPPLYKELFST
Assay: In Vitro RORc Ligand Binding Assay
Settings: RORc IC50, radioligand 25-[3H]hydroxycholesterol 6 nM; 0.6 ug/mL RORc receptor; 3 h at 25° C.

SMILES | IC50 [nM]
C[C@H](O)c1nnc(-c2cncc([C@@]34CC[C@@H](c5cc(-c6c(F)cccc6F)nnc53)C4(C)C)n2)[nH]1 [Example 224, (S)-1-(5-(6-((5R,8S)-3-(2,6-difluorophenyl)-9,9-dimethyl-5,6,7,8-tetrahydro-5,8-methanocinnolin-8-yl)pyrazin-2-yl)-4H-1,2,4-triazol-3-yl)ethanol] | 12.4
C[C@@H](O)c1nnc(-c2cncc([C@@]34CC[C@@H](c5cc(-c6c(F)cccc6F)nnc53)C4(C)C)n2)[nH]1 [Example 225, (R)-1-(5-(6-((5R,8S)-3-(2,6-difluorophenyl)-9,9-dimethyl-5,6,7,8-tetrahydro-5,8-methanocinnolin-8-yl)pyrazin-2-yl)-4H-1,2,4-triazol-3-yl)ethanol] | 21
CC1(C)[C@H]2CC[C@]1(c1cc(=O)[nH]cn1)c1nnc(-c3c(F)cccc3F)cc12 [Example 226, 6-((5R,8S)-3-(2,6-difluorophenyl)-9,9-dimethyl-5,6,7,8-tetrahydro-5,8-methanocinnolin-8-yl)pyrimidin-4(3H)-one] | 363
Cc1nc(C#N)ncc1[C@@]12CC[C@@H](c3cc(-c4c(F)cccc4F)nnc31)C2(C)C [Example 227, 5-((5R,8S)-3-(2,6-difluorophenyl)-9,9-dimethyl-5,6,7,8-tetrahydro-5,8-methanocinnolin-8-yl)-4-methylpyrimidine-2-carbonitrile] | 717
Cc1cc([C@@]23CC[C@@H](c4cc(-c5c(F)cccc5F)nnc42)C3(C)C)nc(C#N)n1 [Example 228] | 15.3
CC1(C)[C@H]2CC[C@]1(c1nc(C(=O)NCCO)ncc1Cl)c1nnc(-c3c(F)cccc3F)cc12 [Example 230] | 55.2
CC1(C)[C@H]2CC[C@]1(c1ccnc(-n3cnc(C(N)=O)n3)n1)c1nnc(-c3c(F)cccc3F)cc12 [Example 232] | 27.9
CC1(C)[C@H]2CC[C@]1(c1nc(C#N)ncc1Cl)c1nnc(-c3c(F)cccc3F)cc12 [Example 233] | 13.8
CC(C)(O)c1nnc(-c2ncc(F)c([C@@]34CC[C@@H](c5cc(-c6c(F)cccc6F)nnc53)C4(C)C)n2)[nH]1 [Example 234] | 36.6
CC1(C)[C@H]2CC[C@]1(c1ccnc(-n3cc(CO)cn3)n1)c1nnc(-c3c(F)cccc3F)cc12 [Example 238] | 39.4
CC(C)(O)c1cn(-c2nccc([C@@]34CC[C@@H](c5cc(-c6c(F)cccc6F)nnc53)C4(C)C)n2)cn1 [Example 239] | 13.9
CC1(C)[C@H]2CC[C@]1(c1cc(-c3c[nH]c(=O)[nH]3)ccn1)c1nnc(-c3c(F)cccc3F)cc12 [Example 244] | 120
CC1(C)[C@@H]2CC[C@@]1(c1nc(C#N)ncc1Cl)c1nnc(-c3c(F)cccc3F)cc12 [Example 245] | 26.4
CC(C)(O)c1cc(-c2cncc([C@@]34CC[C@@H](c5cc(-c6c(F)cccc6F)nnc53)C4(C)C)n2)[nH]n1 [Example 247, 2-(5-(6-((5R,8S)-3-(2,6-difluorophenyl)-9,9-dimethyl-5,6,7,8-tetrahydro-5,8-methanocinnolin-8-yl)pyrazin-2-yl)-1H-pyrazol-3-yl)propan-2-ol] | 20
CC(C)(O)c1noc(-c2cncc([C@@]34CC[C@@H](c5cc(-c6c(F)cccc6F)nnc53)C4(C)C)n2)n1 [Example 248, 2-(5-(6-((5R,8S)-3-(2,6-difluorophenyl)-9,9-dimethyl-5,6,7,8-tetrahydro-5,8-methanocinnolin-8-yl)pyrazin-2-yl)-1,2,4-oxadiazol-3-yl)propan-2-ol] | 27
CC(C)(O)c1nnc(-c2ncc(Cl)c([C@@]34CC[C@@H](c5cc(-c6c(F)cccc6F)nnc53)C4(C)C)n2)[nH]1 [Example 249] | 50.1
CC1(C)[C@H]2CC[C@]1(c1nc(C(N)=O)ncc1F)c1nnc(-c3c(F)cccc3F)cc12 [Example 250] | 22.8
CC1(C)[C@H]2CC[C@]1(c1ccnc(-n3ccc(CO)n3)n1)c1nnc(-c3c(F)cccc3F)cc12 [Example 252] | 19.3
C[C@H](O)c1nnc(-c2ncc(F)c([C@@]34CC[C@@H](c5cc(-c6c(F)cccc6F)nnc53)C4(C)C)n2)[nH]1 [Example 257] | 22.6
C[C@@H](O)c1nnc(-c2ncc(F)c([C@@]34CC[C@@H](c5cc(-c6c(F)cccc6F)nnc53)C4(C)C)n2)[nH]1 [Example 258] | 21.6
CC(C)(O)c1nnc(-c2cncc([C@@]34CC[C@@H](c5cc(-c6c(F)cccc6F)nnc53)C4(C)C)n2)o1 [Example 260, 2-(5-(6-((5R,8S)-3-(2,6-difluorophenyl)-9,9-dimethyl-5,6,7,8-tetrahydro-5,8-methanocinnolin-8-yl)pyrazin-2-yl)-1,3,4-oxadiazol-2-yl)propan-2-ol] | 12.4
CC(C)(O)c1nnc(-c2nccc([C@@]34CC[C@@H](c5cc(-c6c(F)cccc6F)nnc53)C4(C)C)n2)[nH]1 [Example 262] | 37.4
C[C@H](O)c1nnc(-c2nccc([C@@]34CC[C@@H](c5cc(-c6c(F)cccc6F)nnc53)C4(C)C)n2)[nH]1 [Example 263] | 20.8
C[C@@H](O)c1nnc(-c2nccc([C@@]34CC[C@@H](c5cc(-c6c(F)cccc6F)nnc53)C4(C)C)n2)[nH]1 [Example 264] | 32.3
Cc1ncn(-c2ncc(F)c([C@@]34CC[C@@H](c5cc(-c6c(F)cccc6F)nnc53)C4(C)C)n2)n1 [Example 267] | 17.3

These reach a lower IC50. Values come first.

IC50 [nM] | SMILES
3 | CC1(C)[C@H]2CC[C@]1(c1cccc(-c3cn[nH]c3)n1)c1nnc(-c3c(F)cccc3F)cc12 [Example 229]
6.3 | CC1(C)[C@H]2CC[C@]1(c1cncc(-n3ccnc3)n1)c1nnc(-c3c(F)cccc3F)cc12 [Example 231]
9.4 | CC1(C)[C@H]2CC[C@]1(c1cc(-c3cnc(CO)o3)ccn1)c1nnc(-c3c(F)cccc3F)cc12 [Example 235]
5.8 | CC1(C)[C@H]2CC[C@]1(c1cncc(-n3cnc(CO)c3)n1)c1nnc(-c3c(F)cccc3F)cc12 [Example 236]
2.6 | CC1(C)[C@H]2CC[C@]1(c1cccc(C(O)CO)n1)c1nnc(-c3c(F)cccc3F)cc12 (stereo partly drawn) [Example 237, 1-(6-((5R,8S)-3-(2,6-difluorophenyl)-9,9-dimethyl-5,6,7,8-tetrahydro-5,8-methanocinnolin-8-yl)pyridin-2-yl)ethane-1,2-diol]
4.5 | CC(C)(O)c1coc(-c2cccc([C@@]34CC[C@@H](c5cc(-c6c(F)cccc6F)nnc53)C4(C)C)n2)n1 [Example 240, 2-(2-(6-((5R,8S)-3-(2,6-difluorophenyl)-9,9-dimethyl-5,6,7,8-tetrahydro-5,8-methanocinnolin-8-yl)pyridin-2-yl)oxazol-4-yl)propan-2-ol]
11 | Cc1cc(-c2ccnc([C@@]34CC[C@@H](c5cc(-c6c(F)cccc6F)nnc53)C4(C)C)n2)on1 [Example 241, 5-(2-((5R,8R)-3-(2,6-difluorophenyl)-9,9-dimethyl-5,6,7,8-tetrahydro-5,8-methanocinnolin-8-yl)pyrimidin-4-yl)-3-methylisoxazole]
5 | CC1(C)[C@H]2CC[C@]1(c1c(Br)cnc(C#N)c1F)c1nnc(-c3c(F)cccc3F)cc12 [Example 242, 5-bromo-4-((5R,8S)-3-(2,6-difluorophenyl)-9,9-dimethyl-5,6,7,8-tetrahydro-5,8-methanocinnolin-8-yl)-3-fluoropicolinonitrile]
11.7 | CC1(C)[C@H]2CC[C@]1(c1cncc(-n3cc(CO)cn3)n1)c1nnc(-c3c(F)cccc3F)cc12 [Example 243, (1-(6-((5R,8S)-3-(2,6-difluorophenyl)-9,9-dimethyl-5,6,7,8-tetrahydro-5,8-methanocinnolin-8-yl)pyrazin-2-yl)-1H-pyrazol-4-yl)methanol]
8.4 | CC1(C)[C@H]2CC[C@]1(c1cncc(-c3ccn[nH]3)n1)c1nnc(-c3c(F)cccc3F)cc12 [Example 246]
9.8 | CC1(C)[C@H]2CC[C@]1(c1ccnc(-c3ccn[nH]3)n1)c1nnc(-c3c(F)cccc3F)cc12 [Example 251]
5.7 | CC1(C)[C@H]2CC[C@]1(c1ccnc(-c3cn[nH]c3)n1)c1nnc(-c3c(F)cccc3F)cc12 [Example 253]
4.4 | CC1(C)[C@H]2CC[C@]1(c1ccnc(-c3cccnc3)n1)c1nnc(-c3c(F)cccc3F)cc12 [Example 254]
8.6 | Cc1ncn(-c2cncc([C@@]34CC[C@@H](c5cc(-c6c(F)cccc6F)nnc53)C4(C)C)n2)n1 [Example 255]
10.1 | CC(C)(O)c1nc(-c2cncc([C@@]34CC[C@@H](c5cc(-c6c(F)cccc6F)nnc53)C4(C)C)n2)no1 [Example 256, 2-(3-(6-((5R,8S)-3-(2,6-difluorophenyl)-9,9-dimethyl-5,6,7,8-tetrahydro-5,8-methanocinnolin-8-yl)pyrazin-2-yl)-1,2,4-oxadiazol-5-yl)propan-2-ol]
8.7 | CC(C)(O)c1cc(-c2cncc([C@@]34CC[C@@H](c5cc(-c6c(F)cccc6F)nnc53)C4(C)C)n2)no1 [Example 259, 2-(3-(6-((5R,8S)-3-(2,6-difluorophenyl)-9,9-dimethyl-5,6,7,8-tetrahydro-5,8-methanocinnolin-8-yl)pyrazin-2-yl)isoxazol-5-yl)propan-2-ol]
11.7 | CC1(C)[C@H]2CC[C@]1(c1ccnc(-n3cnc(C(N)=O)c3)n1)c1nnc(-c3c(F)cccc3F)cc12 [Example 261]
4.3 | Cc1cc(-c2ccnc([C@@]34CC[C@@H](c5cc(-c6c(F)cccc6F)nnc53)C4(C)C)n2)no1 [Example 266, 3-(2-((5R,8R)-3-(2,6-difluorophenyl)-9,9-dimethyl-5,6,7,8-tetrahydro-5,8-methanocinnolin-8-yl)pyrimidin-4-yl)-5-methylisoxazole]
3.3 | CC1(C)[C@H]2CC[C@]1(c1nc(N)ncc1F)c1nnc(-c3c(F)cccc3F)cc12 [Example 268]
